In patent US20070255062A1, “Benzoyl Amino Pyridyl Carboxylic Acid Derivatives Useful as Glucokinase (Glk) Activators” (priority 2003, published 2007):
pEC50: −log10 of the molar value.

Columns and labels:
glucokinase (GLK) = target: T1, glucokinase (GLK) (Homo sapiens, UniProt P35557); experiment: Enzymatic activity of GLK (G-6-P dehydrogenase, NADP/NADPH coupled assay), activation by compounds; type: biochemical; conditions: read-out: EC50 (activating activity for glucokinase)
T1 construct: 6-His (N); made in house; host or cells: E. coli BL21 (vector pTB375NBSE)
T1 sequence (P35557 1-466 isoform P35557-2): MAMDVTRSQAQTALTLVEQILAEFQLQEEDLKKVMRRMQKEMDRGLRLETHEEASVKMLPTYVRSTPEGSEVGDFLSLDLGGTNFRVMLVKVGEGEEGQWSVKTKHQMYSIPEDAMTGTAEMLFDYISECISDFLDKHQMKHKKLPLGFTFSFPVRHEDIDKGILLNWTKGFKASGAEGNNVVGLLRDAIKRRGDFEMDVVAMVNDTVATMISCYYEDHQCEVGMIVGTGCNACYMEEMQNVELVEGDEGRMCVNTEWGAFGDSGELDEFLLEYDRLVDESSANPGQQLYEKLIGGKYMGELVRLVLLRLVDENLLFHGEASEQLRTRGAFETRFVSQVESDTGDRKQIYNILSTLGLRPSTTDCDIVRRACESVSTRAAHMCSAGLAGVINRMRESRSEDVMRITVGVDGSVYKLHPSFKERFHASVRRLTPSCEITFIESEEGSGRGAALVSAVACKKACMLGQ
Experimental: (1) Enzymatic activity of GLK may be measured by incubating GLK, ATP and glucose. The rate of product formation may be determined by coupling the assay to a G-6-P dehydrogenase, NADP/NADPH system and measuring the linear increase in optical density at 340 nm (atschinsky et al 1993). Activation of GLK by compounds can be assessed using this assay in the presence or absence of GLKRP (GLK regulatory protein) as described in Brocklehurst et al (Diabetes 2004, 53, 535-541).
GLK was expressed from the vector pTB375NBSE in E.coli BL21 cells, producing a recombinant protein containing a 6-His tag immediately adjacent to the N-terminal methionine. Alternatively, another suitable vector is pET21(+)DNA, Novagen, Cat number 697703. The 6-His tag was used to allow purification of the recombinant protein on a column packed with nickel-nitrilotriacetic acid agarose purchased from Qiagen (cat no 30250).

[1] = Plasma protein binding by equilibrium dialysis; type: in vitro ADME; conditions: rat, 18 hours at 37° C., plasma vs isotonic phosphate buffer pH 7.4, read-out: % free in plasma
Experimental: Measurements of Plasma Protein Binding of Compounds
The plasma protein binding of compounds was measured using the equilibrium dialysis technique (W. Lindner et al, J. Chromatography, 1996, 677, 1-28). Compound was dialysed at a concentration of 20 μM for 18 hours at 37° C. with plasma and isotonic phosphate buffer pH 7.4 (1 ml of each in the dialysis cell). A Spectrum® 20-cell equilibrium dialyser was used together with Teflon, semi-micro dialysis cells and Spectra/Por®2 membrane discs with a molecular weight cut off 12-14000 Dalton, 47 mm (supplied by PerBio Science UK Ltd, Tattenhall, Cheshire). Plasma and buffer samples are removed following dialysis and analysed using HPLCUV/MS (high performance liquid chromatography with UV and mass spec detection) to give the % free level in plasma.

[2] = Plasma levels following oral administration to rats; type: in vivo; conditions: rat, oral gavage, normalised dose of 1 mg of compound per kilogram of rat body weight
Experimental: Measurement of Plasma Levels and Plasma Protein Binding Following Oral Administration to Rats
Planetary Milled compounds [15 mins, 500 rpm, 5 Zirconium Balls, in a Puluerisette 7 Mill (Glen Creston Ltd, Stanmore, Middlesex, UK)] were suspended in 0.5% HPMC Tween and dosed to High Fat Fed (Research Diets, D12451, ad lib feeding 14 days) Female Alderley Park Zucker or Alderley Park Wistar rats at rate of 5 mls/kg, at doses between 0.3 and 10 mg/kg by oral gavage.
Samples of plasma were obtained either by conscious blood sampling or terminal blood sampling as follows:
Conscious blood sampling (for compound level or blood chemistry)—Intravenous blood samples were taken from tail vein using 600 μL Starstedt Multivette (EDTA) and 22 G needle at the required time point. […]
The reconstituted samples were then analysed using high performance liquid chromatography with tandem mass spectrometry detection (HPLC-MS-MS)”. […]
The concentration of test samples was determined from the ratio of the peak height of the test sample to the peak height of the internal standard. The concentration of the test sample was calculated with reference to a standard curve relating the ratio to the concentration prepared by using known concentrations of test sample added to samples of rat plasma using (3-isopropoxy-5-benzyoxy-benzoyl)amino pyridine 3-carboxylic acid as an internal standard, treated as described above.

[3] = Estimation of plasma half-life; type: in vivo; conditions: rat, typically determined following intravenous administration, semilogarithmic plot, read-out: t½ (half life in plasma) (converted)
Source text: Estimation of Plasma Half-Life
The plasma half-life is the time taken for the concentration of compound in the plasma to decline to half of its original value. This is typically determined following intravenous administration of the test compound, followed by measurement of the compound concentrations in plasma samples as described above. The plasma half-life is estimated from a semilogarithmic plot, plotting the log of the plasma concentration (lnCp) against sample time (t, linear). The apparent first-order elimination rate constant, k, is equal to the slope of the line, and the elimination half-life (t1/2) is […] (Gibaldi, M and Perrier, D, 1975 Pharmacokinetics, Marcel Dekker, New York): [formula]

pEC50 (glucokinase (GLK)): 6.96 | fraction unbound at 18 h, 20 μM [1]: 0.0076 | half-life [3]: 6.4 h
SMILES: COC[C@H](C)Oc1cc(Oc2cccc(C)c2)cc(C(=O)Nc2ccc(C(=O)O)cn2)c1 [Example 1, 6-[3-{(1S)-1-methyl-2-methoxy-ethoxy}-5-{3-methylphenoxy}phenylcarbonylamino]pyridine-3-carboxylic acid]
Peak Blood levels (including both bound and free) [2]: 2.06 µM
